Assays:
Type in all cases: cell-based
[1] = Cytotoxicity against human BGC823 cells after 72 hrs; conditions: BGC-823, 72 h
HL-60 = assay: Cytotoxicity against human HL60 cells after 72 hrs; conditions: HL-60, 72 h
MDA-MB-435 = assay: Cytotoxicity against human MDA-MB-435 cells after 72 hrs; conditions: MDA-MB-435, 72 h
[2] = Cytotoxicity against human PC-3MIE8 cells after 72 hrs; conditions: PC-3MIE8, 72 h
HeLa = assay: Cytotoxicity against human HeLa cells after 72 hrs
[3] = Cytotoxicity against human Bel7402 cells after 72 hrs; conditions: Bel-7402, 72 h

Measured: IC50

O=C(O)C(Cc1ccccc1)NCc1ccc2ccc3cccnc3c2n1 (configuration not stated)
> 100 µM: all assays above

O=C(O)C(Cc1ccc(O)cc1)NCc1ccc2ccc3cccnc3c2n1 (configuration not stated)
> 100 µM: all assays above

Source: ChEMBL document CHEMBL1144501, “Synthesis, characterization and biological activity of complexes of lanthanum(III) with 2-(1'-phenyl- 2'-carboxyl-3'-aza-n-butyl)-1,10-phenanthroline and 2-(1'-p-phenol-2'-carboxyl-3'-aza-n-butyl)-1,10-phenanthroline” (Bioorg Med Chem, 2007)
